Read-outs that look alike come from different tables or passages of the source.
Target: Mutant B-Raf (V600E) enzyme (MT B-Raf) (Homo sapiens, UniProt P15056, V600E)
Test: biochemical
[1] = B-Raf Alpha screen comparable to the described assay, phosphorylation of biotinylated HIS-MEK-AVI, results may be an average of two or more results

Chain of Mutant B-Raf (V600E) enzyme (MT B-Raf) (P15056 whole entry V600E): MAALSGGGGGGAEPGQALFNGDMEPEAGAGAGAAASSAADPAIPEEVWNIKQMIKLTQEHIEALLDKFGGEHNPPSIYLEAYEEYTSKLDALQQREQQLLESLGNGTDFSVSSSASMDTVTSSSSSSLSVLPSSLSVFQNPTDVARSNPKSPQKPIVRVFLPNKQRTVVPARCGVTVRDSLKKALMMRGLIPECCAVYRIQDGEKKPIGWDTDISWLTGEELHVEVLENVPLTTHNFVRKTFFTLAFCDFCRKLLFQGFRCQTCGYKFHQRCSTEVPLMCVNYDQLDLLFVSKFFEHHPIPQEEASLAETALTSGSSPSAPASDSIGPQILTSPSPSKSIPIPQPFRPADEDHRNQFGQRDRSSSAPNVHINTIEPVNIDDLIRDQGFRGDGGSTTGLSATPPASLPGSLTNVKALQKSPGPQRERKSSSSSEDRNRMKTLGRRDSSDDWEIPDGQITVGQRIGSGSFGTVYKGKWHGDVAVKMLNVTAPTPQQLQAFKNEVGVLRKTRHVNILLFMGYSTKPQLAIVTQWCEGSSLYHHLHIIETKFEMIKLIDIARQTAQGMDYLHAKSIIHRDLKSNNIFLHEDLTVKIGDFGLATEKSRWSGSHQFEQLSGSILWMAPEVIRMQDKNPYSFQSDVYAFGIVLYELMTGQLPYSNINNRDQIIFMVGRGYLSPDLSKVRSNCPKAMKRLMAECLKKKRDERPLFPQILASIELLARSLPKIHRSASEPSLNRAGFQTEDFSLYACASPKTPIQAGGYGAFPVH

Compound: O=C(NCC1CCCO1)c1ccc(Nc2ncc3cc(-c4ccncc4)ccc3n2)cc1 (stereo not shown) [Example 14, 4-[(6-Pyridin-4-ylquinazolin-2-yl)amino]-N-(tetrahydrofuran-2-ylmethyl)benzamide]
- IC50 [1]: 210 nM

Compound: O=C(NCCCn1ccnc1)c1ccc(Nc2ncc3cc(-c4ccncc4)ccc3n2)cc1 [Example 35, N-[3-(1H-Imidazol-1-yl)propyl]-4-[(6-pyridin-4-ylquinazolin-2-yl)amino]benzamide]
- IC50 [1]: 110 nM

Compound: O=C(NCCN1CCOCC1)c1ccc(Nc2ncc3cc(-c4ccncc4)ccc3n2)cc1 [Example 5, N-(2-Morpholin-4-ylethyl)-4-[(6-pyridin-4-ylquinazolin-2-yl)amino]benzamide]
- IC50 [1]: 180 nM

Compound: O=C(NCC1CCCCN1)c1ccc(Nc2ncc3cc(-c4ccncc4)ccc3n2)cc1 (stereo not shown) [Example 68, N-Piperidin-2-ylmethyl-4-[(6-pyridin-4-ylquinazolin-2-yl)amino]benzamide]
- IC50 [1]: 110 nM

Compound: CC(c1ccc(Nc2ncc3cc(-c4ccncc4)ccc3n2)cc1)N1CCCC1 (stereo not shown) [Example 131, 6-(Pyridin-4-yl)-N-(4-(1-(pyrrolidin-1-yl)ethyl)phenyl)quinazolin-2-amine]
- IC50 [1]: 19 nM

Compound: COCCCNC(C)c1ccc(Nc2ncc3cc(-c4ccncc4)ccc3n2)cc1 (stereo not shown) [Example 55, N-(4-{1-[(3-Methoxypropyl)amino]ethyl}phenyl)-6-pyridin-4-ylquinazolin-2-amine]
- IC50 [1]: 22 nM

Compound: O=C(NCCCN1CCCC1=O)c1ccc(Nc2ncc3cc(-c4ccncc4)ccc3n2)cc1 [Example 21, N-[3-(2-Oxopyrrolidin-1-yl)propyl]-4-[(6-pyridin-4-ylquinazolin-2-yl)amino]benzamide]
- IC50 [1]: 200 nM

Compound: COCCNC(=O)c1cccc(Nc2ncc3cc(-c4ccncc4)ccc3n2)n1 [Example 38, N-(2-Methoxyethyl)-6-[(6-pyridin-4-ylquinazolin-2-yl)amino]pyridine-2-carboxamide]
- IC50 [1]: 1500 nM

Compound: CC(O)CCNC(C)c1ccc(Nc2ncc3cc(-c4ccncc4)ccc3n2)cc1 (stereo not shown) [Example 56, 4-[(1-{4-[(6-Pyridin-4-ylquinazolin-2-yl)amino]phenyl}ethyl)amino]butan-2-ol]
- IC50 [1]: 26 nM

Compound: CC1(C)OCC(CNC(=O)c2ccc(Nc3ncc4cc(-c5ccncc5)ccc4n3)cc2)O1 (stereo not shown) [Example 16, N-[(2,2-Dimethyl-1,3-dioxolan-4-yl)methyl]-4-[(6-pyridin-4-ylquinazolin-2-yl)amino]benzamide]
- IC50 [1]: 200 nM

Compound: c1cc(-c2ccc3nc(Nc4ccc(N5CCOCC5)nc4)ncc3c2)ccn1 [Example 90, N-(6-Morpholin-4-ylpyridin-3-yl)-6-pyridin-4-ylquinazolin-2-amine]
- IC50 [1]: 110 nM

Compound: Oc1ccc(Nc2ncc3cc(-c4ccncc4)ccc3n2)cc1 [Example 81, 4-[(6-Pyridin-4-ylquinazolin-2-yl)amino]phenol]
- IC50 [1]: 61 nM

Compound: CN(C)[C@H]1CCN(C(=O)c2ccc(Nc3ncc4cc(-c5ccncc5)ccc4n3)cc2)C1 [Example 118]
- IC50 [1]: 93 nM

Compound: CC(NCC1CC1)c1ccc(Nc2ncc3cc(-c4ccncc4)ccc3n2)cc1 (stereo not shown) [Example 136, N-(4-{1-[(Cyclopropylmethyl)amino]ethyl}phenyl)-6-pyridin-4-ylquinazolin-2-amine]
- IC50 [1]: 37 nM

Compound: CC(C)(C)OC(=O)N1CCC(CNC(=O)c2ccc(Nc3ncc4cc(-c5ccncc5)ccc4n3)cc2)CC1 [Example 24, tert-Butyl 4-[({4-[(6-pyridin-4-ylquinazolin-2-yl)amino]benzoyl}amino)methyl]piperidine-1-carboxylate]
- IC50 [1]: 520 nM

Compound: CCCNC(C)c1ccc(Nc2ncc3cc(-c4ccncc4)ccc3n2)cc1 (single isomer, unassigned) [Example 141]
- IC50 [1]: 34 nM

Compound: CN1CCCC1CCNCc1ccc(Nc2ncc3cc(-c4ccncc4)ccc3n2)cc1 (stereo not shown) [Example 72, N-[4-({[2-(1-Methylpyrrolidin-2-yl)ethyl]amino}methyl)phenyl]-6-pyridin-4-ylquinazolin-2-amine]
- IC50 [1]: 260 nM

Compound: CNC(=O)c1ccc(Nc2ncc3cc(-c4ccncc4)ccc3n2)cc1 [Example 17, N-Methyl-4-[(6-pyridin-4-ylquinazolin-2-yl)amino]benzamide]
- IC50 [1]: 79 nM

Compound: CNCCCNC(=O)c1ccc(Nc2ncc3cc(-c4ccncc4)ccc3n2)cc1 [Example 59, N-[3-(Methylamino)propyl]-4-[(6-pyridin-4-ylquinazolin-2-yl)amino]benzamide]
- IC50 [1]: 69 nM

Compound: CC(=O)c1ccc(Nc2ncc3cc(-c4ccncc4)ccc3n2)cc1 [Example 53, 1-{4-[(6-Pyridin-4-ylquinazolin-2-yl)amino]phenyl}ethanone]
- IC50 [1]: 210 nM

Compound: Cc1cc(Nc2ncc3cc(-c4ccncc4)ccc3n2)ccc1C(=O)N(C)C [Example 50]
- IC50: 150 nM

Compound: Cc1nc2cc(Nc3ncc4cc(-c5ccncc5)ccc4n3)ccc2o1 [Example 109, N-(2-Methyl-1,3-benzoxazol-5-yl)-6-pyridin-4-ylquinazolin-2-amine]
- IC50 [1]: 940 nM

Compound: FC(F)(F)c1cccc(Nc2ncc3cc(-c4ccncc4)ccc3n2)c1 [Example 82, 6-Pyridin-4-yl-N-[3-(trifluoromethyl)phenyl]quinazolin-2-amine]
- IC50 [1]: 3100 nM

Compound: O=S(=O)(c1cccc(Nc2ncc3cc(-c4ccncc4)ccc3n2)c1)N1CCCC1 [Example 93, 6-Pyridin-4-yl-N-[3-(pyrrolidin-1-ylsulfonyl)phenyl]quinazolin-2-amine]
- IC50 [1]: 3000 nM

Compound: CC(c1ccc(Nc2ncc3cc(-c4ccncc4)ccc3n2)cc1)N(C)C (single isomer, unassigned) [Example 140]
- IC50 [1]: 21 nM

Compound: COc1cc(Nc2ncc3cc(-c4ccncc4)ccc3n2)ccc1C [Example 87, N-(3-Methoxy-4-methylphenyl)-6-pyridin-4-ylquinazolin-2-amine]
- IC50 [1]: 2200 nM

Compound: CC(C)Oc1cccc(Nc2ncc3cc(-c4ccncc4)ccc3n2)c1 [Example 86, N-(3-Isopropoxyphenyl)-6-pyridin-4-ylquinazolin-2-amine]
- IC50 [1]: 1500 nM

Compound: CCN(CCO)c1ccc(Nc2ncc3cc(-c4ccncc4)ccc3n2)cc1 [Example 92, 2-(Ethyl{4-[(6-pyridin-4-ylquinazolin-2-yl)amino]phenyl}amino)ethanol]
- IC50 [1]: 92 nM

Source: US20100216791A1, “PYRIDINYLQUINAZOLINAMINE DERIVATIVES AND THEIR USE AS B-RAF INHIBITORS” (ASTRAZENECA, priority 2006, published 2010)
